Data set [1] in a line: Plasma concentrations of protease inhibitors, ritonavir and efavirenz (antiretroviral exposures). Particulars: for AUC / Cmax: human, in vivo; for Clast: plasma, median (interquartile range), range for lopinavir, median (range) for efavirenz. From the text: (§1) Study procedures were standardized across multiple study arms. The single pharmacokinetic visit included a medication history, adherence survey, and a CYP2D6 phenotype assessment (the other psychotropic study medications were primarily metabolized by CYP 2D6). Participants with HIV had to be taking their antiretroviral medications consistently for at least 4 weeks prior to sampling. […] Plasma samples were drawn at pre-dose and 2, 4, 6, 12, and 24-h post-dose.
Plasma concentrations of primary protease inhibitors, ritonavir and efavirenz were measured at the University of California San Diego Pediatric Pharmacology Laboratory by validated reverse phase high performance liquid chromatography or mass spectrometry methods.

The conditions of data set [2]: cited from earlier work; for half-life: adolescents, ref [17].
Data set [3] can be described thus: Non-compartmental plasma pharmacokinetics of sertraline and N-desmethylsertraline in HIV-infected and uninfected youth (IMPAACT P1080). Conditions: for C0: pre-dose plasma; for CL/F: po, non-compartmental apparent oral clearance; for concentration: read-out: Norm-C0.
Text: International Maternal Pediatric Adolescent AIDS Clinical Trials Network (IMPAACT) P1080 was a multicenter, pilot study of psychiatric and antiretroviral medication concentrations in HIV-1-infected and uninfected youth.
as §1
Analytes and internal standard were extracted with 600 μL of acetonitrile from 200 μL of plasma, then eluted from a Gemini C18 column in under 4 min using acetonitrile/water/formic acid (85:15:0.1, v/v/v) as the mobile phase.
The area under the concentration vs. time curve from time 0–24 h post dose (AUC0−24) was estimated using the trapezoidal rule. Apparent oral clearance (CL/F), where F is bioavailability, was calculated as dose divided by AUC0−24. The apparent volume of distribution (V/F) was determined as CL/F divided by k, where k is the terminal slope of the log plasma concentration-time curve. The half-life (t1/2) was calculated as 0.693/k. All concentration data were normalized to dose (100 mg) and to weight (70 kg). Non-compartmental parameters were estimated with Phoenix® WinNonlin® (Certara L.P. (Pharsight), St. Louis, MO). Pharmacokinetic parameters were compared between HIV(–) and PI/r cohorts with Wilcoxon rank-sum tests, two-sided with significance set to 0.05. Statistical comparisons were not made with the EFV group due to the low enrollment/accrual in this cohort (n = 3).

Data set [4] can be described thus: Sertraline population pharmacokinetics (NONMEM, one-compartment model at steady-state). Particulars: for V/F / ka: typical population value, Estimate (% SE). Type of data set: in vivo, human. The procedure:
A one-compartment model at steady-state with first-order absorption and elimination best described the data (ADVAN2 TRANS2, FOCE with interaction). A combined (additive and proportional) residual error model was used. Covariates were screened individually on each pharmacokinetic parameter (CL/F, V/F, and ka). For all models, goodness of fit were assessed with diagnostic plots. All covariates that improved model fit at p < 0.05 were included in the multivariate screen.

[5] abbreviates: EFV cohort n = 3, median (minimum, maximum).
Where [6] appears, read: PI/r cohort n = 12, median (interquartile range).

Several values for one entry are separate records, joined by “and”; a condition that tells them apart may be missing. Identical values can stand only once. Like-named read-outs stand apart in the source and are kept apart here.

For the compound `COC(=O)N[C@H](C(=O)N[C@@H](Cc1ccccc1)[C@@H](O)CN(Cc1ccc(-c2ccccn2)cc1)NC(=O)[C@@H](NC(=O)OC)C(C)(C)C)C(C)(C)C` [Atazanavir], in data set [1], the AUC (in general, the area under the concentration-time curve, a measure of exposure) is 27200 ng·h/mL; the Cmax (as a rule, the peak of the concentration-time curve) is 3800 ng/mL; the Clast is 1.2 (0.9, 2.6) μg/mL.

With `O=C1Nc2ccc(Cl)cc2[C@@](C#CC2CC2)(C(F)(F)F)O1` [Efavirenz], in data set [1], the AUC came out at 24500 ng·h/mL; the Cmax was determined as 1300 ng/mL; the Clast is given as 1.3 (1.3, 3.4) μg/mL.

On to `N[C@H]1CC[C@@H](c2ccc(Cl)c(Cl)c2)c2ccccc21` [N-desmethylsertraline], for which the elimination half-life in data set [2] (metabolite, ref [5]) was 62 to 104 h.

For `CC(C)c1nc(CN(C)C(=O)N[C@H](C(=O)N[C@@H](Cc2ccccc2)C[C@H](O)[C@H](Cc2ccccc2)NC(=O)OCc2cncs2)C(C)C)cs1` [Ritonavir], in data set [1], the AUC is 4900 ng·h/mL; the Cmax came to 600 ng/mL; the Clast is 0.2 (0.1, 0.4) μg/mL.

For the compound `CN[C@H]1CC[C@@H](c2ccc(Cl)c(Cl)c2)c2ccccc21` [Sertraline], in data set [3] (EFV cohort n = 3), the “sertraline exposures lower in EFV participants than HIV(–) and PI/r groups” value is on record as ~ 50%. Further, in data set [3] (EFV cohort n = 3, 24 h post-dose, median (minimum, maximum)), the C24 is 4.2 (2.9, 5.9) ng/mL. For the same compound, the Tmax in data set [3] (setting [5]) is 6 (4, 6) hr; in data set [3] (setting [6]), 4 (4, 6) hr; in data set [3] (human, in vivo) it was 4 h. The C0 in data set [3] (setting [5]) is 6 ng/mL and 6.0 (3.0, 7.0) ng/mL; in data set [3] (setting [6]), 10.0 (7.5, 15.9) ng/mL. In addition, the “normalized trough concentrations, C0 and C24” value in data set [3] (HIV(-) and PI/r groups) fell in the range of 18 to 33 ng/mL. Further, the “sertraline exposure lower in the PI/r cohort than in HIV(–)” value in data set [3] (PI/r cohort compared to HIV(–)) was ~ 40% and 30–40%. For the same compound, the Cmax in data set [3] (human, in vivo, 0.7 mg/kg, Cmax, EFV cohort n = 3, median (minimum, maximum)) stood at 13.2 ng/mL; in data set [3] (human, in vivo, 0.9 mg/kg, Cmax, PI/r cohort n = 12, median (interquartile range)), 34.3 ng/mL; in data set [3] (human, in vivo, 1.3 mg/kg, Cmax, HIV(-) cohort n = 16, median (interquartile range)), 46.7 ng/mL; in data set [3] (human, in vivo, 100 mg, Norm-Cmax, EFV cohort n = 3, normalized to 100 mg once daily and 70 kg, median (minimum, maximum)), 28.8 ng/mL; in data set [3] (human, in vivo, 100 mg, Norm-Cmax, HIV(-) cohort n = 16, normalized to 100 mg once daily and 70 kg, median (interquartile range)), 78.3 ng/mL; in data set [3] (human, in vivo, 100 mg, Norm-Cmax, PI/r cohort n = 12, normalized to 100 mg once daily and 70 kg, median (interquartile range)) it was 46.9 ng/mL. Further, the AUC(0-t) (usually exposure summed from dosing to a finite time, without extrapolation to infinity) in data set [3] (human, in vivo, 100 mg, Norm-AUC0−24, EFV cohort n = 3, normalized to a 100 mg once daily dose and a weight of 70 kg, median (minimum, maximum)) was 473 ng·h/mL; in data set [3] (human, in vivo, 100 mg, Norm-AUC0−24, HIV(-) cohort n = 16, normalized to a 100 mg once daily dose and a weight of 70 kg, median (interquartile range)), 1180 ng·h/mL; in data set [3] (human, in vivo, 100 mg, Norm-AUC0−24, PI/r cohort n = 12, normalized to a 100 mg once daily dose and a weight of 70 kg, median (interquartile range)) it was 791 ng·h/mL; in data set [3] (human, in vivo, AUC0−24, EFV cohort n = 3, plasma, steady state, median (minimum, maximum)), 145 ng·h/mL; in data set [3] (human, in vivo, AUC0−24, HIV(-) cohort n = 16, plasma, steady state, median (interquartile range)), 652 ng·h/mL; in data set [3] (human, in vivo, AUC0−24, PI/r cohort n = 12, plasma, steady state, median (interquartile range)), 486 ng·h/mL. Moreover, the concentration at 24 h in data set [3] (human, in vivo, 100 mg, Norm-C24, EFV cohort n = 3, normalized to 100 mg once daily and 70 kg, median (minimum, maximum)) turned out to be 12.8 ng/mL; in data set [3] (human, in vivo, 100 mg, Norm-C24, HIV(-) cohort n = 16, normalized to 100 mg once daily and 70 kg, median (interquartile range)) it was 32.7 ng/mL; in data set [3] (human, in vivo, 100 mg, Norm-C24, PI/r cohort n = 12, normalized to 100 mg once daily and 70 kg, median (interquartile range)) it was 20.1 ng/mL; in data set [3] (human, in vivo, C24, EFV cohort n = 3, 24 h post-dose, median (minimum, maximum)), 4.2 ng/mL; in data set [3] (human, in vivo, C24, HIV(-) cohort n = 16, 24 h post-dose, median (interquartile range)), 17.5 ng/mL; in data set [3] (human, in vivo, C24, PI/r cohort n = 12, 24 h post-dose, median (interquartile range)), 12.6 ng/mL. Also, the half-life (as a rule, how long it takes for the measured level to halve) in data set [3] (human, in vivo, T1/2, EFV cohort n = 3, median (minimum, maximum)) was 11.1 h; in data set [3] (human, in vivo, T1/2, HIV(-) cohort n = 16, median (interquartile range)), 26.4 h; in data set [3] (human, in vivo, T1/2, PI/r cohort n = 12, median (interquartile range)), 18.1 h; in data set [2] (single dose) it was 26.7 h; in data set [2] (steady-state) it was 15.3 h. The CL/F (commonly the apparent clearance, not corrected for the fraction that reaches the circulation) in data set [3] (human, in vivo, EFV cohort n = 3, median (minimum, maximum)) is 75 mL/min/kg; in data set [3] (human, in vivo, HIV(-) cohort n = 16, median (interquartile range)), 23.3 mL/min/kg; in data set [3] (human, in vivo, PI/r cohort n = 12, median (interquartile range)), 26.7 mL/min/kg. Further, the concentration turned out to be 13.1 ng/mL in data set [3] (EFV cohort n = 3, normalized to 100 mg once daily and 70 kg, median (minimum, maximum)); 33.3 ng/mL in data set [3] (HIV(-) cohort n = 16, normalized to 100 mg once daily and 70 kg, median (interquartile range)); 17.8 ng/mL in data set [3] (PI/r cohort n = 12, normalized to 100 mg once daily and 70 kg, median (interquartile range)). In addition, the “clearance higher than in geriatric population pharmacokinetic study” value in data set [4] (115 L/h vs 83.1 L/h in geriatric patients with Alzheimer's Disease) stood at 38%. Besides, the values for the V/F in data set [4] (base model) and in data set [4] (final model) were 53.8 L/kg and 44.6 L/kg, respectively. The ka in data set [4] (base model) was 0.45 1/h and 0.45 (16.2) 1/h; in data set [4] (final model), 0.42 1/h and 0.42 (14.7) 1/h. For the same compound, the clearance in data set [4] (human, plasma, oral, population model, for a typical 70 kg patient, read-out: estimated clearance (converted)) was 1920 mL/min; in data set [2] (population pharmacokinetic study of geriatric patients (median age = 76 years) with Alzheimer's Disease, ref [23]) it was 83.1 L/h. Also, in data set [2] (adults, children, and adolescents, ref [5]), the elimination half-life result is given as “about 27 h”. For the same compound, in data set [2] (adults, concomitant efavirenz, ref [13]), the “decrease of sertraline exposure (AUC0−24) by efavirenz” value is listed as ~ 40%. Moreover, the “AUC0−24” value in data set [2] (after multiple dosing in prior adult studies, normalized to a 100 mg dose, ref [20]) is 1038 to 1532 ng·h/mL; in data set [2] (previous pediatric studies, normalized to 100 mg dose and 70 kg weight, ref [15], [17]), 883 to 2,535 ng·h/mL. The half-life at steady-state is listed as 15.3 h in data set [2] (lower end of dose range of 50–200 mg, ref [15], [17]) and 27.2 h in data set [2] (upper end of dose range of 50–200 mg, ref [15], [17]). Besides, the “sertraline exposure (AUC0−24 and Cmax) lower in children and adolescents” value in data set [2] (plasma concentration adjusted for weight, compared to adults, ref [5], [9]) is listed as ~ 22%. The median sertraline trough in data set [2] (therapeutic drug monitoring program, 100 mg daily doses, IQR 12–30 ng/mL, ref [21]) was 20 ng/mL.
